Laboratory results from ChEMBL document CHEMBL3044621, “1-(7-Chloroquinolin-4-yl)-2-[(1H-pyrrol-2-yl)methylene]hydrazine: a potent compound against cancer” (Med Chem Res, 2012).
≈ marks a conversion by molar mass, not a printed value.

What was measured:
SF-295 [1] = assay: Cytotoxicity against Homo sapiens (human) SF295 cells assessed as growth inhibition at 25 ug/ml after 72 hr by MTT assay; assay type: functional; conditions: SF-295, 72 h, read-out: GI
HCT-8 [2] = assay: Cytotoxicity against Homo sapiens (human) HCT8 cells assessed as growth inhibition at 25 ug/ml after 72 hr by MTT assay; assay type: functional; conditions: HCT-8, 72 h, read-out: GI
MDA-MB-435 [3] = assay: Cytotoxicity against Homo sapiens (human) MDA-MB-435 cells assessed as growth inhibition at 25 ug/ml after 72 hr by MTT assay; assay type: functional; conditions: MDA-MB-435, 72 h, read-out: GI
MDA-MB-435 [4] = assay: Ratio of doxorubicin IC50 to compound IC50 for Homo sapiens (human) MDA-MB-435 cells; assay type: functional
MDA-MB-435 [5] = assay: Cytotoxicity against Homo sapiens (human) MDA-MB-435 cells after 72 hr by MTT assay; assay type: functional, cell-based; conditions: MDA-MB-435, 72 h
SF-295 [6] = assay: Cytotoxicity against Homo sapiens (human) SF295 cells after 72 hr by MTT assay; assay type: functional, cell-based; conditions: SF-295, 72 h
HCT-8 [7] = assay: Cytotoxicity against Homo sapiens (human) HCT8 cells after 72 hr by MTT assay; assay type: functional, cell-based; conditions: HCT-8, 72 h
HL-60 = assay: Cytotoxicity against Homo sapiens (human) HL60 cells after 72 hr by MTT assay; assay type: functional, cell-based; conditions: HL-60, 72 h

Compound | inhibition of growth at 25 µg/mL (SF-295 [1]) | inhibition of growth at 25 µg/mL (HCT-8 [2]) | inhibition of growth at 25 µg/mL (MDA-MB-435 [3]) | Ratio IC50 (MDA-MB-435 [4]) | IC50 (MDA-MB-435 [5]) | IC50 (SF-295 [6]) | IC50 (HCT-8 [7]) | IC50 (HL-60)
O=[N+]([O-])c1ccc(/C=N/Nc2ccnc3cc(Cl)ccc23)o1 | 7.53% | 24.1% | 38% | – | – | – | – | –
O=[N+]([O-])c1ccc(/C=N/Nc2ccnc3cc(Cl)ccc23)s1 | 33.4% | 49% | 42.1% | – | – | – | – | –
Clc1ccc2c(N/N=C/c3ccc[nH]3)ccnc2c1 | 100% | 100% | 100% | 4 | 0.117 µg/mL (≈ 0.431 µM) | 0.527 µg/mL (≈ 1.95 µM) | 0.441 µg/mL (≈ 1.63 µM) | 0.0952 µg/mL (≈ 0.352 µM)
Clc1ccc2c(N/N=C/c3ncc[nH]3)ccnc2c1 | 30.2% | 34% | 82.6% | – | – | – | – | –
Clc1ccc2c(N/N=C/c3ccco3)ccnc2c1 | 61.9% | 53.2% | 68.5% | – | – | – | – | –
Clc1ccc2c(N/N=C/c3cccs3)ccnc2c1 | 1.03% | 21.1% | 21.6% | – | – | – | – | –
COc1cccc2c1C(=O)c1c(O)c3c(c(O)c1C2=O)C[C@@](O)(C(=O)CO)C[C@@H]3O[C@H]1C[C@H](N)[C@H](O)[C@H](C)O1 [DOXORUBICIN] | – | – | – | – | – | – | 0.01 µg/mL (≈ 0.0184 µM) | –
